Reference: US20170081323A1 (priority 2015, published 2017)
pIC50: −log10 of the molar value. Where two headings read alike, the source gives them in different places.

Tested on: influenza A virus (IAV) A/Aichi/2/68 (H3N2)
Assay: microbe, parasite or virus in culture
Format: cell-based, influenza A virus A/Aichi/2/68 (H3N2) on MDCK cells
Conditions: H3N2, MDCK, 48 h

| Structure (SMILES) | pIC50 (read-out: CPE) | pIC50 (read-out: CPE IC50) |
| --- | --- | --- |
| O=c1[nH]nc2c(-c3ccccc3)cccn12 | < 4.30 | – |
| O=c1[nH]nc2cc(-c3ccccc3)ccn12 | < 4.30 | – |
| O=c1[nH]nc2ccc(-c3ccccc3)cn12 | < 4.30 | – |
| O=c1[nH]nc2ccc(-c3cccc(Cl)c3)cn12 | < 4.30 | – |
| O=c1[nH]nc2ccc(-c3cccc(F)c3F)cn12 | < 4.30 | – |
| O=c1[nH]nc2ccc(-c3ccc(Cl)cc3)cn12 | < 4.30 | – |
| O=c1[nH]nc2ccc(-c3cccc(-c4c(F)cccc4F)c3)cn12 | – | 4.46 |
| O=c1[nH]nc2ccc(-c3ccccc3-c3ccccc3)cn12 | < 4.30 | – |
| O=c1[nH]nc2ccc(-c3ccccc3-c3ccncc3)cn12 | < 4.30 | – |
| O=c1[nH]nc2ccc(Oc3ccccc3)cn12 | < 4.30 | – |
| O=c1[nH]nc2cccc(-c3ncccn3)n12 | < 4.30 | – |
| O=c1[nH]nc2ccc(Br)c(Oc3ccccc3)n12 | < 4.30 | – |
| O=c1[nH]nc2ccc(-c3ccccc3Cl)c(OCC3CC3)n12 | < 4.30 | – |
| O=c1[nH]nc2cccc(-c3ccccc3)n12 | < 4.30 | – |
| O=c1[nH]nc2n1C(OCC1CC1)CCC2 (centres unmarked) | < 4.30 | – |
| O=c1[nH]nc2ccc(-c3cccc4ccccc34)cn12 | < 4.30 | – |
| O=c1[nH]nc2ccc(Br)cn12 | < 4.30 | – |
| O=c1[nH]nc2ccc(-c3ccccc3Cl)cn12 | < 4.30 | – |
| COc1ccc(-c2ccc3n[nH]c(=O)n3c2)c(Cl)c1 | < 4.30 | – |
| Cc1ccc(C)c(-c2ccc3n[nH]c(=O)n3c2)c1 | < 4.30 | – |
| O=c1[nH]nc2ccc(-c3cccc(F)c3)cn12 | < 4.30 | – |
| O=c1[nH]nc2ccc(-c3ccccc3-c3cccc(F)c3)cn12 | < 4.30 | – |
| O=c1[nH]nc2ccc(-c3cccc(-c4ccccc4)c3)cn12 | < 4.30 | – |
| O=c1[nH]nc2ccc(-c3ccc(-c4ccccc4)cc3)cn12 | < 4.30 | – |
| O=c1[nH]nc2cccc(Oc3ccccc3)n12 | < 4.30 | – |
| O=c1[nH]nc2ccc(-c3ccccc3)c(OCC3CC3)n12 | < 4.30 | – |
| O=c1[nH]nc2ccc(-c3ccccc3Cl)c(Oc3ccccc3)n12 | < 4.30 | – |
| O=c1[nH]nc2cccc(C#CC3CC3)n12 | < 4.30 | – |
| O=C1NNC2CCCC(CCC3CC3)N12 (centres unmarked) | < 4.30 | – |
